SMILES strings stand for the structures. Calls of active or inactive are those of the source. Cut-off read from the data, not from the text of the source, for most assays here: actives have a measured EC50 and inactives only a lower limit. Where only a bound is given, the exact number is not on record here.
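Throughout, for AC50: cells exposed to compound for roughly 70 hours or longer before luminescence read.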

Sequence of Peroxisome proliferator-activated receptor gamma/Nuclear receptor coactivator 1 (P37231 whole entry): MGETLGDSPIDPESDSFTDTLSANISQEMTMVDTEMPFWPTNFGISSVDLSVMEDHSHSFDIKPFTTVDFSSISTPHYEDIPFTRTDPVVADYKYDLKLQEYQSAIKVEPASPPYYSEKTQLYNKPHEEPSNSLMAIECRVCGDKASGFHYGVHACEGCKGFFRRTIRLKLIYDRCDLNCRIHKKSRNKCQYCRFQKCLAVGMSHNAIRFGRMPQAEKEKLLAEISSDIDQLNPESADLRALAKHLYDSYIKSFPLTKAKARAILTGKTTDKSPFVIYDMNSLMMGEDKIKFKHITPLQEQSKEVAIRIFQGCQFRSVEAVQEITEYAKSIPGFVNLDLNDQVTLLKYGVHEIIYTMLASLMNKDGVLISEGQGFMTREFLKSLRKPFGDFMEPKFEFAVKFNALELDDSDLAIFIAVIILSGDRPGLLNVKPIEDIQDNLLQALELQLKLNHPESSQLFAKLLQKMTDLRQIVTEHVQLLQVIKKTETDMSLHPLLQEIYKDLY
Sequence of Peroxisome proliferator-activated receptor gamma/Nuclear receptor coactivator 1 (Q15788 whole entry, further chain): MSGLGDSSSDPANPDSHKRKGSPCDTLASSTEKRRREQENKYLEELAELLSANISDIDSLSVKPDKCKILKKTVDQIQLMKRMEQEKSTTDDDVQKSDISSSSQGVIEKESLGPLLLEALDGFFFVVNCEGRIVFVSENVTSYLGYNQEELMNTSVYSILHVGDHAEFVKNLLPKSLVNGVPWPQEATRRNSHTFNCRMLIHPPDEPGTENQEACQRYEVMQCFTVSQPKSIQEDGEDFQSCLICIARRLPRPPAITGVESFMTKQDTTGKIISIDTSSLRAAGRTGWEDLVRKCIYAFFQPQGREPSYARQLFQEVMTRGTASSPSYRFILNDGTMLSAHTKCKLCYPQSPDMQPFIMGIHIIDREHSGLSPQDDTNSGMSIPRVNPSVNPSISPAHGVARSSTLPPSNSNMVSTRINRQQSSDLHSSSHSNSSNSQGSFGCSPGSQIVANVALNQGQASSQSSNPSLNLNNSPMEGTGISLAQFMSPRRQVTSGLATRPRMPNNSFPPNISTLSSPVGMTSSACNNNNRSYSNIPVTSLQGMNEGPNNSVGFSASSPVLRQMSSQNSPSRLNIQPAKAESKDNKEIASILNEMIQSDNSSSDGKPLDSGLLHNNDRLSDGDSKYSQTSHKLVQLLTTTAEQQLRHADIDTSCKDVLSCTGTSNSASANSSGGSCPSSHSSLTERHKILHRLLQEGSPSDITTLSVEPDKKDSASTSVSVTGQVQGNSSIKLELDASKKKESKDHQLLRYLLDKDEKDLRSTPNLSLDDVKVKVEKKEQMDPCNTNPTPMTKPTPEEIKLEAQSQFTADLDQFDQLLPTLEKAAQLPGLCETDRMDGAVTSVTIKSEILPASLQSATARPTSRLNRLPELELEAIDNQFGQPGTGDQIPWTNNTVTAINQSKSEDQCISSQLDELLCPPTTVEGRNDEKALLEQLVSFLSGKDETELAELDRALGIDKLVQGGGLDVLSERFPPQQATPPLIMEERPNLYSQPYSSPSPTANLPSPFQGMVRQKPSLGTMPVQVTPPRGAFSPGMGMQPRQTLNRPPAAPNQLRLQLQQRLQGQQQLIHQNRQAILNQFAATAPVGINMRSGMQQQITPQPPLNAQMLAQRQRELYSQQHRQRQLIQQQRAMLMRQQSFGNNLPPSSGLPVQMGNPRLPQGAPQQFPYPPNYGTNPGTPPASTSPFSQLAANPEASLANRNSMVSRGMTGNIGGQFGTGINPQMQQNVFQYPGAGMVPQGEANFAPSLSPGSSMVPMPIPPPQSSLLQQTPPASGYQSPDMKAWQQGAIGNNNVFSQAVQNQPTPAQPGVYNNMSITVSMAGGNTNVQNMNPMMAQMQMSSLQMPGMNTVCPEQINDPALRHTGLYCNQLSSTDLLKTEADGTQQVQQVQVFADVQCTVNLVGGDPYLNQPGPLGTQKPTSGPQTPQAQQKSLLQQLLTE
Sequence of Peroxisome proliferator-activated receptor gamma/Nuclear receptor coactivator 3 (P37231 whole entry): as the sequence (P37231 whole entry) above
Sequence of Peroxisome proliferator-activated receptor gamma/Nuclear receptor coactivator 3 (Q9Y6Q9 whole entry, further chain): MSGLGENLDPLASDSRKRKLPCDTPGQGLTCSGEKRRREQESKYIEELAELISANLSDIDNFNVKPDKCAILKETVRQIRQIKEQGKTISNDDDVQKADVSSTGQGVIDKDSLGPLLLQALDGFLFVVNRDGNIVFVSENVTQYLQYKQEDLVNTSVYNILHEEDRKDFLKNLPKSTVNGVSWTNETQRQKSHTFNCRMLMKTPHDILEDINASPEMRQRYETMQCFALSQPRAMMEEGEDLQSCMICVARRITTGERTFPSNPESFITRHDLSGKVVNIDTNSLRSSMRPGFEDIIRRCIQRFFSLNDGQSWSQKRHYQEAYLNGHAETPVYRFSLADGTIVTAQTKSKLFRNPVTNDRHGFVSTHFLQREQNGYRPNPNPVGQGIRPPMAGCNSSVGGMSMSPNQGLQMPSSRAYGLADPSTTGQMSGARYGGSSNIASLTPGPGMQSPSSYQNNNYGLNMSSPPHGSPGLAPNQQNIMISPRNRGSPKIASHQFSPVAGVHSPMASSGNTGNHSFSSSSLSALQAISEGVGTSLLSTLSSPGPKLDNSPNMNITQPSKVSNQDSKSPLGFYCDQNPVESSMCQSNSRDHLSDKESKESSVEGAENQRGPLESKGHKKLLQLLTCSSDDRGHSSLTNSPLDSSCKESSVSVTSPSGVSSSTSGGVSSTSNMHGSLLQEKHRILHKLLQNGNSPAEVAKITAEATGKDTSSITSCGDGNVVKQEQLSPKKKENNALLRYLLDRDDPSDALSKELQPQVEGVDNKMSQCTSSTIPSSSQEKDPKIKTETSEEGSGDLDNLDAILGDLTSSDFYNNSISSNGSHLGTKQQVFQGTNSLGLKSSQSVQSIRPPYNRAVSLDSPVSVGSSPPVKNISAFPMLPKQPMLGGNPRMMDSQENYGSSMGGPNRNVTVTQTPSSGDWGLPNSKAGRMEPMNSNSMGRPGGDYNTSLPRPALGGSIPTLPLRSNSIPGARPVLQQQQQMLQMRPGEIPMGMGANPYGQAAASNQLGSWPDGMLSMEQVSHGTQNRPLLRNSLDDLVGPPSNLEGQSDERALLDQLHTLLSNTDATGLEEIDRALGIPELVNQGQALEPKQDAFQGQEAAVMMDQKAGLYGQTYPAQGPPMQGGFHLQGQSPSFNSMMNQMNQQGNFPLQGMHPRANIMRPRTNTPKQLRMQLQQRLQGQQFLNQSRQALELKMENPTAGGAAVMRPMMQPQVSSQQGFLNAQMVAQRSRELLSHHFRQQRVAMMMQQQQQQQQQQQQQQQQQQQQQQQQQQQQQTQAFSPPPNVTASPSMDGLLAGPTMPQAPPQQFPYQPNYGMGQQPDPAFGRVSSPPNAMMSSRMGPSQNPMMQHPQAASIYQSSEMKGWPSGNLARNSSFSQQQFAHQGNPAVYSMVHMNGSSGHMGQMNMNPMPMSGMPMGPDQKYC

System in the first test: not listed separately
The experiment in a line: NIH3T3 cell viability loss – ATP luminescence, mouse fibroblasts, counter-screen, dose response (AID 2010).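 Note: cells exposed to compound for about 90 hours before reading.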
Conditions: not given
The test is classed as functional, cell-based. For orientation: The purpose of a counterscreen is to sort out artefacts and off-target activity.
As to `O=C(Nc1nc(-c2ccc(S(=O)(=O)N3CCCCCC3)cc2)cs1)c1cccs1`, the EC50 was 6.61 µM (active).
As to `c1ccc(CN2CCN(c3nc(-c4ccccc4)nc(-n4ccnc4)n3)CC2)cc1`, the EC50 is > 60 µM (not active).

System in another test: not listed separately
The test is described as follows: viability loss of HPDE-C7K cells – cell-based, fluorescence, HTS, primary screen (AID 431). The conditions noted are these: Homo sapiens. The test is classed as functional.
`Cc1cccc(N2CCN(C(=O)c3cc4n(n3)C(C(F)(F)F)CC(c3ccco3)N4)CC2)c1C` (configuration not stated): the EC50 is given as > 20 µM (not active).
As to `COc1cccc(C2=NC(C)(C)NC(c3ccccc3O)C2)c1` (configuration not stated), the EC50 is 12.5 µM (active).
As for `O=C1Nc2cc(Cl)ccc2C1(N1CCNCC1)C(F)(F)F` (configuration not stated), the EC50 was > 20 µM (not active).
Turning to `Nc1c(C(=O)NCCc2ccccc2)c2nc3ccccc3nc2n1CCN1CCOCC1`, the EC50 was 10.4 µM (active).
The same measure, in the same setting: for `c1ccc(CN2CCN(c3nc(-c4ccccc4)nc(-n4ccnc4)n3)CC2)cc1` the value was 11.9 µM (active); for `CCCCCCn1c(N2CCN(c3cccc(Cl)c3)CC2)nc2c1c(=O)[nH]c(=O)n2C`, > 20 µM (not active).

The next test addresses Peroxisome proliferator-activated receptor gamma/Nuclear receptor coactivator 3 (Homo sapiens, UniProt P37231).
Test: not given
The test is classed as functional.
Conditions: not given
`O=C(Nc1nc(-c2ccc(S(=O)(=O)N3CCCCCC3)cc2)cs1)c1cccs1`: the EC50 is given as 17.4 µM (not active).
The same measure, in the same setting: for `Cc1ccc(NC(=O)CN(C)C(=S)NC2CC2)cc1` the value was > 79.4 µM (not active).

A further test relates to Streptococcus. The test is described as follows: GAS UMAA2166 growth inhibition – luminescence, BacTiterGlo, counter-screen for streptokinase expression inhibitor project, dose response (AID 1915).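 Note: potency for reduction of bacterial viability or growth.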 The test is classed as functional, organism-based.
Conditions: not given
Regarding `Cc1cccc(N2CCN(C(=O)c3cc4n(n3)C(C(F)(F)F)CC(c3ccco3)N4)CC2)c1C` (configuration not stated), the EC50 is 29.1 µM (active).

For a further test, the target named is Peroxisome proliferator-activated receptor gamma/Nuclear receptor coactivator 2 (Homo sapiens, UniProt P37231).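 Note: agonist potency for raising coactivator recruitment to the receptor.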
Test: not given
The test is classed as functional.
Conditions: not given
On to `O=C(Nc1nc(-c2ccc(S(=O)(=O)N3CCCCCC3)cc2)cs1)c1cccs1`, for which the EC50 is reported as 14.6 µM (not active).
For the molecule `Cc1ccc(NC(=O)CN(C)C(=S)NC2CC2)cc1`, the EC50 is reported as > 79.4 µM (not active).

The target of the next test is T1, Protein skinhead-1 (Caenorhabditis elegans, UniProt P34707).
T1 sequence (P34707 whole entry): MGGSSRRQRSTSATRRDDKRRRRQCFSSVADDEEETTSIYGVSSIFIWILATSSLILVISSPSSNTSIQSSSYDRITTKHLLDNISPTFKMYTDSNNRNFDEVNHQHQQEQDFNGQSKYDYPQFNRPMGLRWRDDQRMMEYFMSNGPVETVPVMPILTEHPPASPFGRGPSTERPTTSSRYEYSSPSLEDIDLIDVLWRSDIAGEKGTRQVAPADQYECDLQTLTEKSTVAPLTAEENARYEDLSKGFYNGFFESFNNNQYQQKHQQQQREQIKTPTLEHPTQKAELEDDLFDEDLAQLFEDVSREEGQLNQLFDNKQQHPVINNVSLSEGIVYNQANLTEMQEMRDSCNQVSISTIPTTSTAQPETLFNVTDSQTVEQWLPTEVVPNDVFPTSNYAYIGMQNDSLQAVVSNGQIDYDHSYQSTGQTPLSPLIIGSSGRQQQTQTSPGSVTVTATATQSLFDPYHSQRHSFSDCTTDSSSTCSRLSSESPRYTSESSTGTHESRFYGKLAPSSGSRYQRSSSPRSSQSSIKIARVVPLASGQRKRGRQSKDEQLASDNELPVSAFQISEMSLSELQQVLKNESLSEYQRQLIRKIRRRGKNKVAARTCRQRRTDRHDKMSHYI
Test: not given
The test is classed as functional.
Conditions: not given
Consider `CCCCCCn1c(N2CCN(c3cccc(Cl)c3)CC2)nc2c1c(=O)[nH]c(=O)n2C`, for which the IC50 was > 100 µM (inactive).

System in a further test: not listed separately
The test is described as follows: HPDE-C7 pancreatic duct cell viability loss – fluorescence, HTS (AID 430). The test is classed as functional, cell-based. The settings on record: Homo sapiens.
On to `Cc1cccc(N2CCN(C(=O)c3cc4n(n3)C(C(F)(F)F)CC(c3ccco3)N4)CC2)c1C` (configuration not stated), for which the EC50 is > 20 µM (not active).
Regarding `COc1cccc(C2=NC(C)(C)NC(c3ccccc3O)C2)c1` (configuration not stated), the EC50 was 11.7 µM (active).
Still for that read-out and setting: for `O=C1Nc2cc(Cl)ccc2C1(N1CCNCC1)C(F)(F)F` (configuration not stated) the value was > 20 µM (not active); for `Nc1c(C(=O)NCCc2ccccc2)c2nc3ccccc3nc2n1CCN1CCOCC1`, 9.43 µM (active).
Take `c1ccc(CN2CCN(c3nc(-c4ccccc4)nc(-n4ccnc4)n3)CC2)cc1`: the half-maximal effective concentration (EC50) is 9.94 µM (active).
Turning to `CCCCCCn1c(N2CCN(c3cccc(Cl)c3)CC2)nc2c1c(=O)[nH]c(=O)n2C`, the EC50 is recorded as > 20 µM (not active).

A further test relates to Streptococcus sp. 'group A'. The experiment in a line: Streptococcus pyogenes SK(-)GAS viability under kanamycin – luminescence, BacTiterGlo, confirmation, counter-screen for streptokinase expression inhibitor project, dose response (AID 1900). The test is classed as functional, organism-based.
Conditions: not given
Regarding `Cc1cccc(N2CCN(C(=O)c3cc4n(n3)C(C(F)(F)F)CC(c3ccco3)N4)CC2)c1C` (configuration not stated), the EC50 is 3.02 µM (active).

Another test has as its target T2, Streptokinase A (Streptococcus pyogenes serotype M1, UniProt P10520).
T2 sequence (P10520 whole entry): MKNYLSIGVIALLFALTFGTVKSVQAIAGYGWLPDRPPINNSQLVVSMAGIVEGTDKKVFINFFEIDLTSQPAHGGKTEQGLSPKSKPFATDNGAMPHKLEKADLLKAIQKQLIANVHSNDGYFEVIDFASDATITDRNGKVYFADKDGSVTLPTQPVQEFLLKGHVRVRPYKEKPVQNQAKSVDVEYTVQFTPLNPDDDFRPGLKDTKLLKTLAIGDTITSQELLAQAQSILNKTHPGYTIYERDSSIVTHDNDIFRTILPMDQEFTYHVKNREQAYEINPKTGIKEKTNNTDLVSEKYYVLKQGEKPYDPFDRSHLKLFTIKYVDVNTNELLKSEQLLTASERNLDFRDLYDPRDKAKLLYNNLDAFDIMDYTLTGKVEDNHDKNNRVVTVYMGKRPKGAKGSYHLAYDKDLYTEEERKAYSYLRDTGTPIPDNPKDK
The test is described as follows: viability-normalized secreted streptokinase activity reduction – plasminogen activation absorbance, OD405, dose response (AID 1914).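 Note: secreted streptokinase activity via plasminogen activation per viability signal from cell pellet.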 The test is classed as functional, Streptococcus pyogenes M1 GAS.
Conditions: not given
As to `Cc1cccc(N2CCN(C(=O)c3cc4n(n3)C(C(F)(F)F)CC(c3ccco3)N4)CC2)c1C` (configuration not stated), the EC50 was 16.7 µM (active).

System in a further test: not listed separately
The test is described as follows: Luminescence Cell-Based Dose Retest to Confirm Inhibitors of Cancer Stem Cells. [Related pubchem assays (depositor defined):AID2717, AID2721]. The test is classed as functional, Homo sapiens. The settings on record: Homo sapiens.
Regarding `Cc1cccc(N2CCN(C(=O)c3cc4n(n3)C(C(F)(F)F)CC(c3ccco3)N4)CC2)c1C` (configuration not stated), the AC50 was 1.84 µM (active).

A further test concerns the target Peroxisome proliferator-activated receptor gamma/Nuclear receptor coactivator 1 (Homo sapiens, UniProt P37231).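 Note: agonist potency as compounds enhance coactivator SRC-1 recruitment to PPARgamma.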
Test: not given
The test is classed as functional.
Conditions: not given
With `O=C(Nc1nc(-c2ccc(S(=O)(=O)N3CCCCCC3)cc2)cs1)c1cccs1`, the EC50 is on record as 16.5 µM (not active).
The same measure, in the same setting: the same measure for `Cc1ccc(NC(=O)CN(C)C(=S)NC2CC2)cc1`: > 79.4 µM (not active).

System in the next test: not listed separately
The experiment in a line: Trypanosoma cruzi growth suppression in host cells – NIH3T3 host cells, beta-gal luminescence, confirmation (AID 2044).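 Note: intracellular parasites grown in NIH/3T3 mouse fibroblasts as host cells; luminescent beta-galactosidase reporter signal from transgenic T. cruzi replicating inside host cells; inhibitors lower the luminescence signal.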 The test is classed as functional, cell-based.
Conditions: not given
On to `O=C(Nc1nc(-c2ccc(S(=O)(=O)N3CCCCCC3)cc2)cs1)c1cccs1`, for which the EC50 is 2.33 µM (active).
On the same count and under the same terms, for `c1ccc(CN2CCN(c3nc(-c4ccccc4)nc(-n4ccnc4)n3)CC2)cc1` the value was 2.31 µM (active).

For orientation: EC50 means the concentration that produces a half-maximal response. By IC50 is commonly meant the concentration needed to halve the response being measured. What is called AC50 is the midpoint of the concentration-response curve, whichever way the signal moves.

For the origin of these results see ChEMBL document CHEMBL1201862, “PubChem BioAssay data set” (2004).
